# Patent US20140314663A1, “PEPTIDE-MEDIATED DELIVERY OF ACTIVE AGENTS ACROSS THE BLOOD-BRAIN BARRIER” (MAYO FOUNDATION FOR MEDICAL EDUCATION AND RESEARCH, priority 2011, published 2014)
# Tests used:
# brain = assay: Residence time of EB dye in brain following transportation by the peptide; format: in vivo, mice
# Procedure: A series of mice were administered 300 μg of K16ApoE followed by administration of ˜40 μL 2% EB 10 min after administration of the peptide. As a control, only EB was injected, cardiac perfusion was done 6 hours after EB injection, followed by collection of brain. For all other mice, perfusion and collection of brains was performed 15 min, 30 min, 1 h, 2 h, 4 h, 6 h, 12, h, and 24 h following administration of EB.
# [1] = tested on: brains, lungs, heart, liver, spleen and kidney; assay: Tissue distribution of Evans Blue (EB) after delivery via K16ApoE; format: in vivo, mice
# Procedure: Mice were injected with various amounts of K16ApoE peptide (0 μg, 150 μg, 100 μg, 75 μg, 50 μg, 25 and μg) first. EB (40 μL of a 2% solution was injected 10 min after injection of the peptide. Tissues (brains, lungs, heart, liver, spleen and kidney) were collected 1 h after EB delivery. All injections were through the femoral vein.
# BBB [2] = assay: Length of time of BBB opening following administration of peptide; format: in vivo, mice
# Procedure: A series of mice were administered 300 μg of K16ApoE followed by administration of ˜40 μL 2% EB at various time points. As a control, only EB was injected, cardiac perfusion was done 6 hours after EB injection, followed by collection of brain. For the other images, 300 μg of K16ApoE was first injected, then EB was injected after 5 min, 10 min, 30 min, 1 h, 2 h and 4 h, respectively. Then, perfusion and collection of brain was done after 5 h 55 min, 5 h 50 min, 5 h 30 min, 5 h, 4 h and 2 h, respectively).
# BBB [3] = assay: Comparison of delivery of EB to the brain by K16ApoE and K26ApoE; format: in vivo; settings: for EB dye in brain: EB 10 min later, brain collected 1 h after EB
# Procedure: This experiment was carried out to evaluate if lengthening the lysine-chain will have any effect on the delivery of small molecules to the brain. ˜40 μL of 2% EB was injected 10 min after injection of various amounts of K16ApoE (75 μg, 100 μg, 150 μg, 250 μg, and 300 μg) or K26ApoE (25 μg, 50 μg, 75 μg, 100 μg, 125 μg, and 150 μg). K26ApoE (SEQ ID NO: 139) having the sequence: Brain tissue as was collected 1 h following EB injection. All injections were at the femoral vein.
# BBB [4] = assay: Transportation of dyes of various molecular weights across the BBB (K16ApoE or K16ApoE+IgG); format: in vivo, mouse
# Procedure: (§1) To explore whether K16ApoE (SEQ. ID. NO: 42) compromises integrity of the BBB, the peptide was first injected by iv followed by injection of Evan's Blue (EB; a routinely used small molecule blue dye with a molecular weight of 960.81) by iv into the femoral vein of a mouse. Cardiac perfusion was performed and the brains of the mice were removed and evaluated approximately 2 hours following injection of the dye. As controls, a peptide consisting of 16 lysine residues (K16) and a 20-amino acid peptide comprising the LDLR-binding domain of ApoE (ApoE-FITC; (SEQ ID NO:13)), were used. The particulars of each administration are as follows: • 1) 67.5 nanomoles of K16 injected first, then ˜40 μL 2% EB was injected. • 2) Same as 1 but K16 and EB mixed prior to injection. • 3) 67.5 nanomoles of ApoE-FITC injected first, then ˜40 μL 2% EB was injected. • 4) Same as 3 but ApoE-FITC peptide and EB was mixed prior to injection. • 5) 67.5 nanomoles of K16ApoE injected first, then ˜40 μL 2% EB was injected. • 6) Same as 5 but K16ApoE peptide and EB was mixed first before injection.
# To evaluate delivery of molecules of various molecular weights across the blood brain barrier, the method of Example 1 was used with Evan's Blue (EB), MW 960.81 gmol; Crocein Scarlet, MW 584.54 g/mol; and Light green SF, MW 792.86 g/mol. […]
# BBB [5] = assay: Transportation of Evan's Blue (EB) dye across the BBB after iv injection of peptide; format: in vivo, mouse; settings: 67.5 nanomoles K16ApoE iv injected first, then ~40 μL 2% EB; brain evaluated ~2 hours after dye
# Procedure: as §1
# BBB [6] = assay: EB transportation across the BBB as a function of the amount of K16ApoE administered; format: in vivo, mouse
# Procedure: as §1
# Using the method described in Example 1, various amounts of K16ApoE (SEQ. ID. NO: 42) was injected followed by administration of ˜40 μL 2% EB. […]
# [7] = control: only EB injected, perfusion 6 hours after EB
compound,measurement,setting,value
"Cc1cc(-c2ccc(/N=N/c3ccc4c(S(=O)(=O)O)cc(S(=O)(=O)O)c(N)c4c3O)c(C)c2)ccc1/N=N/c1ccc2c(S(=O)(=O)O)cc(S(=O)(=O)O)c(N)c2c1O [EB, Evan's Blue]",time after administration up to which dye remains intense (retained well) in brain,brain; EB 10 min after 300 μg K16ApoE,up to 4 h
same,time post EB administration at which dye is first observed in brain,brain; EB 10 min after 300 μg K16ApoE,15 min
same,"time after administration up to which dye is still observed, less intensely, in brain","brain; EB 10 min after 300 μg K16ApoE, longest time point tested",up to 24 hours
same,EB dye in brain,brain; [7],no dye is observed
same,EB in brain,"[1]; EB 10 min after 0-150 μg K16ApoE, tissues collected 1 h after EB",goes into brain only after injection of the peptide
same,EB stain of tissues,[1]; EB injected after K16ApoE injection,"Kidney, spleen and liver are stained with EB"
same,EB stain of tissues,[1]; EB injected without K16ApoE,"Kidney, spleen, liver and heart show some EB-stain"
same,EB dye in brain,BBB [2]; [7],no dye was observed
KKKKKKKKKKKKKKKKKKKKKKKKKKLRVRLASHLRKLRKRLLRDA (KKKKKKKKKKKKKKKKKKKKKKKKKKLRVRLASHLRKLRKRLLRDA) [K26ApoE],EB dye in brain,BBB [3]; 25 μg of peptide,no dye was observed
same,EB dye in brain,BBB [3]; 50 μg of peptide,only a small amount of dye present
same,EB dye in brain,BBB [3]; 75 μg of peptide,Increasing EB is observed
same,effectiveness in delivering EB to the brain relative to K16ApoE,BBB [3]; K26ApoE vs K16ApoE,approximately two-fold
KKKKKKKKKKKKKKKKLRVRLASHLRKLRKRLLRDA (KKKKKKKKKKKKKKKKLRVRLASHLRKLRKRLLRDA) [K16ApoE],EB dye in brain,BBB [3]; 75 μg of peptide,no dye was observed
same,EB dye in brain,BBB [3]; 100 μg of peptide,only a small amount of dye present
same,EB dye in brain,BBB [3]; 150 μg of peptide and above,Increasing EB is observed
same,transport of dye to the brain,"BBB [4]; 300 μg K16ApoE (alone or + 300 μg IgG) injected first, then dye (EB, Crocein Scarlet, Light green SF; ~40 μL 2%)",allowed transport of molecules of various sizes to the brain
same,transport of dye to the brain,BBB [4]; 300 μg K16ApoE mixed with dye (~40 μL 2%) prior to injection,does not appear to cross the BBB
same,amount of K16ApoE giving best EB entry into brain,"[1]; EB 10 min after peptide, tissues collected 1 h after EB",150 µg
same,EB dye transported to the brain (blue coloring of brain),BBB [5],crosses the BBB and is transported to the brain
same,EB dye in brain,"BBB [2]; EB injected 5 min, 10 min, 30 min after 300 μg K16ApoE",observed
same,EB dye in brain,BBB [2]; EB injected 1 h and 2 h after 300 μg K16ApoE,decreased intensity of dye observed
same,EB dye in brain,BBB [2]; EB injected 4 h after 300 μg K16ApoE,little to no EB dye remaining
same,EB dye observed in the brain,"BBB [6]; increasing amounts of K16ApoE (100, 200, 300 μg) injected before ~40 μL 2% EB",increasing amount of EB dye present in the brain
same,EB dye observed in the brain,BBB [6]; less than 100 μg K16ApoE injected before ~40 μL 2% EB,no dye is observed
